From PMC4503722, “Novel Phenotypic Outcomes Identified for a Public Collection of Approved Drugs from a Publicly Accessible Panel of Assays” (PLoS ONE, 2015)
Like-named read-outs stand apart in the source and are kept apart here.

Legend:
hKDR = target: T1, hKDR (Homo sapiens, UniProt P35968); assay: Cerep LANCE kinase assay hKDR (S1 assay 32); format: biochemical
T1 construct: purchased Cerep (LANCE kinase assay platform, contract assay)

hp70S6K1 (RPS6KB1) = target: T2, hp70S6K1 (RPS6KB1) (Homo sapiens, UniProt P23443); assay: Cerep LANCE kinase assay hp70S6K1 (S1 assay 31); format: biochemical
T2 construct: purchased Cerep (LANCE kinase assay platform, contract assay)

HeLa cells = assay: cells; format: cell-based; details: for EC50: Homo sapiens, HeLa, read-out: CellCycle G2/M;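 on Hela CellCycMod PI 4N summarized IC50: value tracks stimulation of 4N DNA content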
hJAK2 = target: T3, hJAK2 (Homo sapiens, UniProt O60674); assay: Cerep LANCE kinase assay hJAK2 (S1 assay 33); format: biochemical
T3 construct: purchased Cerep (LANCE kinase assay platform, contract assay)

HT-29 = assay: cells; format: cell-based
INS-1E cells = assay: cells; format: cell-based, rat; details: Rattus norvegicus, INS-1E
RKO = assay: cells; format: cell-based
[1] = test system: HCT116 cells treated with a GSK3β inhibitor; assay: cells; format: cell-based
SNU-C1 = assay: cells; format: cell-based
hGSK3b = target: T4, hGSK3b (Homo sapiens, UniProt P49841); assay: Cerep LANCE kinase assay hGSK3b (S1 assay 34); format: biochemical
T4 construct: purchased Cerep (LANCE kinase assay platform, contract assay)

Colo320 = assay: cells; format: cell-based
DLD-1 = assay: cells; format: cell-based
NCI-H716 cells = assay: cells; format: cell-based, Human; details: Homo sapiens
SW480 = assay: cells; format: cell-based
hFLT3 = target: T5, hFLT3 (Homo sapiens, UniProt P36888); assay: Cerep LANCE kinase assay hFLT3 (S1 assay 35); format: biochemical
T5 construct: purchased Cerep (LANCE kinase assay platform, contract assay)

HCT116 = assay: cells; format: cell-based
[2] = test system: ECFC/ADSC co-culture cell nuclei number; details: read-out: VEGF_ADSC\ECFC Angio Hoechst NucArea summarized IC50
[3] = test system: endothelial tube formation in co-cultures of ECFCs and ADSCs treated with VEGF; assay: cells; format: cell-based, human
[4] = test system: nuclear β-catenin in C2C12 cells; assay: cells; format: cell-based; details: Mus musculus, C2C12, read-out: Wnt Pathway
[5] = Homo sapiens, HT-29, read-out: Basal_Viability ATP HT-29
[6] = Homo sapiens, HCT-116, read-out: GSK3b inh pretreated_Viability ATP HCT116
[7] = Homo sapiens, SNU-C1, read-out: Basal_Viability ATP SNU-C1
[8] = Homo sapiens, DLD-1, read-out: Basal_Viability ATP DLD-1
[9] = Homo sapiens, SW480, read-out: Basal_Viability ATP SW480
[10] = Homo sapiens, HCT-116, read-out: Basal_Viability ATP HCT116
[11] = read-out: VEGF_ADSC\ECFC Angio CD31 TubeArea summarized IC50
[12] = NCI-H716, read-out: GLP 1 Secretion

T3 sequence (O60674 whole entry): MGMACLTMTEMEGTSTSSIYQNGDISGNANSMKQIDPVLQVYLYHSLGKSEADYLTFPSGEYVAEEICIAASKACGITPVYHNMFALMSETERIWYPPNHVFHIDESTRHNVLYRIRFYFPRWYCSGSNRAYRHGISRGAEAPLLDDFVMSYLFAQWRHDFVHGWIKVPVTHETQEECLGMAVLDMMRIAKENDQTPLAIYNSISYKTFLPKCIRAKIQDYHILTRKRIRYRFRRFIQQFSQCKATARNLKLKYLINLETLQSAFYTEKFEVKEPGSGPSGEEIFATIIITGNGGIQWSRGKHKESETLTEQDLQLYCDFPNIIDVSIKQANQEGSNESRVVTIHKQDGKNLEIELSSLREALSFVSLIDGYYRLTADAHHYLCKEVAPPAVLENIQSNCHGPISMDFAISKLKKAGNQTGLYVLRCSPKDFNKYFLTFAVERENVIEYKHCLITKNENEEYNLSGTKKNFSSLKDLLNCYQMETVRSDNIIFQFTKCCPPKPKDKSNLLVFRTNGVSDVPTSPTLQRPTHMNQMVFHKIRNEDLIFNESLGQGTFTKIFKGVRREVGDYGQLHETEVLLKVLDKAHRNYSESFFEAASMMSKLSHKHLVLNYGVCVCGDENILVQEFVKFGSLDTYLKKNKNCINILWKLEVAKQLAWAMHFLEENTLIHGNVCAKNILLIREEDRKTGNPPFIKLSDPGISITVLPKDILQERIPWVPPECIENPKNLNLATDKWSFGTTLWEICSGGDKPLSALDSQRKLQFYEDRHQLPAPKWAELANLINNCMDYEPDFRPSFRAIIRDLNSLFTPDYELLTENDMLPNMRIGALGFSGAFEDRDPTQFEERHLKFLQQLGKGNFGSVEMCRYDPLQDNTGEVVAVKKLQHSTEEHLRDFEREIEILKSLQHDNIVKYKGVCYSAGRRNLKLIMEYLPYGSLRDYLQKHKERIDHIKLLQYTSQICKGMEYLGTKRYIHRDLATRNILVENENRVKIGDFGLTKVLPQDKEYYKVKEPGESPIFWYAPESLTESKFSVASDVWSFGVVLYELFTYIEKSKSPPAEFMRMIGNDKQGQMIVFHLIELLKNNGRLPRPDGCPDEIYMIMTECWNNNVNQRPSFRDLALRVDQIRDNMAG
T2 sequence (P23443 whole entry): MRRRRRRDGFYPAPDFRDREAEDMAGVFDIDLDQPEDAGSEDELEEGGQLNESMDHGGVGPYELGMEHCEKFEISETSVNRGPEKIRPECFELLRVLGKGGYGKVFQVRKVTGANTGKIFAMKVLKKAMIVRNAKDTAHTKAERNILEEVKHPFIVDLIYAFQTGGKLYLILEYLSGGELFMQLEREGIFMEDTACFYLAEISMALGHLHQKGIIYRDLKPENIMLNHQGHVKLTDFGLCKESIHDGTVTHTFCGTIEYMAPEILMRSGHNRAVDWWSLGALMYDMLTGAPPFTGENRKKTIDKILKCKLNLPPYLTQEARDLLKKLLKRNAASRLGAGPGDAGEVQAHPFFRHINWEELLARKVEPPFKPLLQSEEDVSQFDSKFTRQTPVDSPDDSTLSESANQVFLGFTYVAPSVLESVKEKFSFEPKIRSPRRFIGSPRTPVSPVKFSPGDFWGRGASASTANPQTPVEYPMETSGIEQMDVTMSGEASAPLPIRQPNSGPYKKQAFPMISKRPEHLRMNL
T5 sequence (P36888 27-993): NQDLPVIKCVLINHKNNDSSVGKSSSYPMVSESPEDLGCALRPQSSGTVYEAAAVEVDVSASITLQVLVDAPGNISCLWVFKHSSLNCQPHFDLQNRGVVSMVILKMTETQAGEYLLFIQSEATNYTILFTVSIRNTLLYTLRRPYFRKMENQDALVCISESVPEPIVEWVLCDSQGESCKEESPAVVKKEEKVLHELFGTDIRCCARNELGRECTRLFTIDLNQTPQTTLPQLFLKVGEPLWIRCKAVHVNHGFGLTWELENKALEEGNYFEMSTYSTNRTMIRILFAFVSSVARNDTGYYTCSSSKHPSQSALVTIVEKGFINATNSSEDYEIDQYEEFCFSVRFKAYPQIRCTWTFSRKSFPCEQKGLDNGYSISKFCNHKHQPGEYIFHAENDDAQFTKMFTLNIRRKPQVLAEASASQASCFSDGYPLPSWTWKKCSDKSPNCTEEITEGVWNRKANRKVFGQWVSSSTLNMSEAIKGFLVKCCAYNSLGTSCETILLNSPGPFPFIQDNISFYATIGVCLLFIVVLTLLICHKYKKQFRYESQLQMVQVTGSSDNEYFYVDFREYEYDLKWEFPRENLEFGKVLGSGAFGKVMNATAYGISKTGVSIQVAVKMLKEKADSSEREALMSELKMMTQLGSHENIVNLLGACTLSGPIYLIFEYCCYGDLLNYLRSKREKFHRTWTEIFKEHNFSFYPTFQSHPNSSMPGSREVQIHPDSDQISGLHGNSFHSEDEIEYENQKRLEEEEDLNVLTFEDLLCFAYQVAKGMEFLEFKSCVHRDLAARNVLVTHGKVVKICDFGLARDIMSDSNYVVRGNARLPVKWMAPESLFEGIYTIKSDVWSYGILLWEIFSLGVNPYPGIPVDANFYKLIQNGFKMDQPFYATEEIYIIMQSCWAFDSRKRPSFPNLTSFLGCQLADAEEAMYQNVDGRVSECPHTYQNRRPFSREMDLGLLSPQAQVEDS
T4 sequence (P49841 whole entry): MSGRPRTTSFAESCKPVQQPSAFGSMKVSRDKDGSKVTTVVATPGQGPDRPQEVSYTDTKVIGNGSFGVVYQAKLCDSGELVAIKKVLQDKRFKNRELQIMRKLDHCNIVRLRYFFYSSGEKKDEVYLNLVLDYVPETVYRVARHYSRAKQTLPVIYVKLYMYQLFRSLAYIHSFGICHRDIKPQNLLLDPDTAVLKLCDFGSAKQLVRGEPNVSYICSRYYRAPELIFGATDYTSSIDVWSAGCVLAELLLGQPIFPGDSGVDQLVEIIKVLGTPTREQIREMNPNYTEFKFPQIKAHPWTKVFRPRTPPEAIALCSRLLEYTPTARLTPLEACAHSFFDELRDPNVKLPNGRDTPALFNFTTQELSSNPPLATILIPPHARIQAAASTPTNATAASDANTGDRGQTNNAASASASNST
T1 sequence (P35968 20-1356): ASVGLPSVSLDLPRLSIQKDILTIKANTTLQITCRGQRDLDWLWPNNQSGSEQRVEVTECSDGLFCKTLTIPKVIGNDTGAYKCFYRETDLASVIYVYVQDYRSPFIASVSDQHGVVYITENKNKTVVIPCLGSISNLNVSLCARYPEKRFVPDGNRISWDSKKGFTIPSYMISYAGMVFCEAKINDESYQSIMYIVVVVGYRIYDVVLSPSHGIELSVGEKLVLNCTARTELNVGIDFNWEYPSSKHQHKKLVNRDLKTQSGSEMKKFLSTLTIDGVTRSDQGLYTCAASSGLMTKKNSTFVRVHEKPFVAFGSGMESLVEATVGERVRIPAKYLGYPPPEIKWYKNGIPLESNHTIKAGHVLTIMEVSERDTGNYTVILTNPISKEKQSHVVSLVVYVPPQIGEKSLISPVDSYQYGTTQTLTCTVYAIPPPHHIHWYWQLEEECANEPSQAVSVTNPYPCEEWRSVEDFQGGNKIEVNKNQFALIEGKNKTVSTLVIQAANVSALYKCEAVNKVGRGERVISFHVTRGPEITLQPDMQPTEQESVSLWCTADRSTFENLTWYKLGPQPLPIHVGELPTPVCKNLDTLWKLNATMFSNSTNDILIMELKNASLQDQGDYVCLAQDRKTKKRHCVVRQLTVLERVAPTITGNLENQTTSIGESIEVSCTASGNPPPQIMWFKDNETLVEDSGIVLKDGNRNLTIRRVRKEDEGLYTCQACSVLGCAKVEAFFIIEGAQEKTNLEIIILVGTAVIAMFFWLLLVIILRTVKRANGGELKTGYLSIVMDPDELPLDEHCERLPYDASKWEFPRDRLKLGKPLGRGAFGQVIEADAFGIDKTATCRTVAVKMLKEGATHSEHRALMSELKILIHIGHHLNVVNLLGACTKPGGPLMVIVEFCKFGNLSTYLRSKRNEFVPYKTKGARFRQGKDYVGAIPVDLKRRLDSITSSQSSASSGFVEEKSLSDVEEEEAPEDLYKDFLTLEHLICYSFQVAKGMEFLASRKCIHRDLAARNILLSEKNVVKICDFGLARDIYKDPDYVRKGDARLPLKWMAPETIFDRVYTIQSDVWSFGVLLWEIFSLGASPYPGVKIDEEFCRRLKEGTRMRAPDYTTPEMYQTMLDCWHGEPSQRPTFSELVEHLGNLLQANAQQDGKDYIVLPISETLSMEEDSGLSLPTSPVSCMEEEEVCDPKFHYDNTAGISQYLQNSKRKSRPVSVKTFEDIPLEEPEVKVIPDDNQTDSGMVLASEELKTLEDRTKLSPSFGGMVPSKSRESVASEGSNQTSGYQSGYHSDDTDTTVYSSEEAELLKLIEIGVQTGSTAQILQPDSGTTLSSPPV

CC(C)C[C@H](NC(=O)[C@H](Cc1ccccc1)NC(=O)c1cnccn1)B(O)O [bortezomib, reference compound]
IC50 (hKDR; read-out: KDR): > 20000 nM
IC50 (hp70S6K1 (RPS6KB1); read-out: p70S6K1): > 20000 nM
EC50 (HeLa cells): > 10000 nM
IC50 (hJAK2; read-out: JAK2): > 20000 nM
IC50 (HT-29; Homo sapiens, HT-29, 72 h, read-out: HT-29 viab. IC50): 3 nM
IC50 (HT-29; [5]): 3.15 nM
EC50 (INS-1E cells; read-out: Ins. sec. EC50): > 10000 nM
IC50 (RKO; Homo sapiens, RKO, 72 h, read-out: RKO viab. IC50): 8 nM
IC50 (RKO; Homo sapiens, RKO, read-out: Basal_Viability ATP RKO): 8.1 nM
IC50 ([1]; Homo sapiens, HCT-116, 72 h, read-out: HCT-116 (GSK3β) viab. IC50): 2 nM
IC50 [1, 6]: 2.41 nM
IC50 (SNU-C1; Homo sapiens, SNU-C1, 72 h, read-out: SNU-C1 viab. IC50): 3 nM
IC50 (SNU-C1; [7]): 3.2 nM
IC50 (hGSK3b; read-out: GSK3b): > 20000 nM
IC50 (Colo320; Homo sapiens, COLO 320, 72 h, read-out: Colo320 viab. IC50): 2800 nM
IC50 (DLD-1; Homo sapiens, DLD-1, 72 h, read-out: DLD-1 viab. IC50): 6 nM
IC50 (DLD-1; [8]): 6.36 nM
EC50 (NCI-H716 cells; NCI-H716, read-out: GLP1 sec. EC50): > 10000 nM
IC50 (SW480; Homo sapiens, SW480, 72 h, read-out: SW480 viab. IC50): 5 nM
IC50 (SW480; [9]): 5.13 nM
IC50 (hFLT3; read-out: FLT3): > 20000 nM
IC50 (HCT116; Homo sapiens, HCT-116, 72 h, read-out: HCT-116 viab. IC50): 4 nM
IC50 (HCT116; [10]): 3.65 nM

Nc1nc(=S)c2[nH]cnc2[nH]1 [NCGC00263442-01]
IC50 (hKDR; read-out: hKDR LANCE summarized IC50): > 20000 nM
IC50 (hp70S6K1 (RPS6KB1); read-out: hp70S6K1 LANCE summarized IC50): > 20000 nM
IC50 (HeLa cells; read-out: Hela CellCycMod PI 2N summarized IC50): > 10000 nM
IC50 (HeLa cells; read-out: Hela CellCycMod PI 4N summarized IC50): > 10000 nM
IC50 (HeLa cells; read-out: Hela CellCycMod PI Cell Number summarized IC50): > 10000 nM
IC50 (HeLa cells; read-out: Hela CellCycMod PI MI summarized IC50): > 10000 nM
IC50 (HeLa cells; read-out: Hela CellCycMod PI S Phase summarized IC50): > 10000 nM
IC50 (hJAK2; read-out: hJAK2 LANCE summarized IC50): > 20000 nM
IC50 (HT-29; read-out: Basal_Viability ATP HT-29 summarized IC50): 49.3 nM
IC50 (RKO; read-out: Basal_Viability ATP RKO summarized IC50): 343 nM
IC50 ([1]; read-out: GSK3b inh pretreated_Viability ATP HCT116 summarized IC50): 163 nM
IC50 (SNU-C1; read-out: Basal_Viability ATP SNU-C1 summarized IC50): 4400 nM
IC50 (hGSK3b; read-out: hGSK3b LANCE summarized IC50): > 20000 nM
IC50 (Colo320; read-out: Basal_Viability ATP Colo 320 summarized IC50): 373 nM
IC50 [2]: > 10000 nM
IC50 (DLD-1; read-out: Basal_Viability ATP DLD-1 summarized IC50): 108 nM
IC50 (SW480; read-out: Basal_Viability ATP SW480 summarized IC50): 402 nM
IC50 [3, 11]: 622 nM
IC50 (hFLT3; read-out: hFLT3 LANCE summarized IC50): > 20000 nM
IC50 (HCT116; read-out: Basal_Viability ATP HCT116 summarized IC50): 139 nM

S=c1nc[nH]c2nc[nH]c12 [NCGC00094717-06]
IC50 (hKDR; assay number 32, read-out: hKDR LANCE summarized IC50): > 20000 nM
IC50 (hp70S6K1 (RPS6KB1); assay number 31, read-out: hp70S6K1 LANCE summarized IC50): > 20000 nM
IC50 (HeLa cells; assay number 14, 2N, read-out: Hela CellCycMod PI 2N summarized IC50): > 10000 nM
IC50 (HeLa cells; assay number 16, 4N, read-out: Hela CellCycMod PI 4N summarized IC50): > 10000 nM
IC50 (HeLa cells; assay number 17, MI, read-out: Hela CellCycMod PI MI summarized IC50): > 10000 nM
IC50 (HeLa cells; assay number 18, cell number, read-out: Hela CellCycMod PI Cell Number summarized IC50): > 10000 nM
IC50 (hJAK2; assay number 33, read-out: hJAK2 LANCE summarized IC50): > 20000 nM
IC50 (HT-29; assay number 28, basal, read-out: Basal_Viability ATP HT-29 summarized IC50): 635 nM
IC50 (RKO; assay number 29, basal, read-out: Basal_Viability ATP RKO summarized IC50): 659 nM
IC50 ([1]; assay number 26, GSK3b inhibitor pretreated, read-out: GSK3b inh pretreated_Viability ATP HCT116 summarized IC50): 1420 nM
IC50 (SNU-C1; assay number 30, basal, read-out: Basal_Viability ATP SNU-C1 summarized IC50): > 20000 nM
IC50 (hGSK3b; assay number 34, read-out: hGSK3b LANCE summarized IC50): > 20000 nM
IC50 (Colo320; assay number 27, basal, read-out: Basal_Viability ATP Colo 320 summarized IC50): 1300 nM
IC50 [2]: > 10000 nM
IC50 (DLD-1; assay number 23, basal, read-out: Basal_Viability ATP DLD-1 summarized IC50): 260 nM
IC50 (SW480; assay number 24, basal, read-out: Basal_Viability ATP SW480 summarized IC50): 1040 nM
IC50 [3, 11]: 915 nM
IC50 (hFLT3; assay number 35, read-out: hFLT3 LANCE summarized IC50): > 20000 nM
IC50 (HCT116; assay number 25, basal, read-out: Basal_Viability ATP HCT116 summarized IC50): 259 nM

CCC1=C[C@@H]2CN(C1)Cc1c([nH]c3ccccc13)[C@@](C(=O)OC)(c1cc3c(cc1OC)N(C)[C@H]1[C@@](O)(C(=O)OC)[C@H](OC(C)=O)[C@]4(CC)C=CCN5CC[C@]31[C@@H]54)C2 [vinorelbine]
IC50 (hKDR; read-out: KDR): > 20000 nM
IC50 (hp70S6K1 (RPS6KB1); read-out: p70S6K1): > 20000 nM
IC50 (hJAK2; read-out: JAK2): > 20000 nM
EC50 (INS-1E cells; read-out: Insulin Secretion): > 10000 nM
IC50 [1, 6]: 66.7 nM
IC50 (hGSK3b; read-out: GSK3b): > 20000 nM
IC50 (DLD-1; [8]): 214 nM
EC50 (NCI-H716 cells; [12]): > 10000 nM
IC50 (SW480; [9]): 342 nM
IC50 ([3]; Homo sapiens, read-out: Anti-Angiogenesis): 5.5 nM
EC50 [4]: 8.9 nM
IC50 (hFLT3; read-out: FLT3): > 20000 nM
IC50 (HCT116; [10]): 96.4 nM

O=c1[nH]c(=O)n([C@H]2C[C@H](O)[C@@H](CO)O2)cc1C(F)(F)F [Trifluridine]
IC50 (hKDR; kinase assay, read-out: KDR): > 20000 nM
IC50 (hp70S6K1 (RPS6KB1); kinase assay, read-out: p70S6K1): > 20000 nM
EC50 (HeLa cells): > 10000 nM
IC50 (hJAK2; kinase assay, read-out: JAK2): > 20000 nM
IC50 (HT-29; [5]): > 20000 nM
EC50 (INS-1E cells; read-out: Insulin Secretion): > 10000 nM
IC50 [1, 6]: 1250 nM
IC50 (SNU-C1; [7]): > 20000 nM
IC50 (hGSK3b; kinase assay, read-out: GSK3b): > 20000 nM
IC50 (Colo320; Homo sapiens, COLO 320, read-out: Basal_Viability ATP Colo 320): > 20000 nM
IC50 (DLD-1; [8]): > 20000 nM
EC50 (NCI-H716 cells; [12]): > 10000 nM
IC50 (SW480; [9]): > 20000 nM
IC50 (hFLT3; kinase assay, read-out: FLT3): > 20000 nM
